These results are taken from patent US9840464B2, “IAP binding compounds” (TetraLogic Birinapant UK Ltd., priority 2004, dated 2017).

Molecules are shown by their SMILES. Counter-ions that a name gives are not always drawn.

A word on the Kd: it is the concentration at which binding is half-saturated.

XIAP-BIR3, sequence (P98170 241-356 limits assumed): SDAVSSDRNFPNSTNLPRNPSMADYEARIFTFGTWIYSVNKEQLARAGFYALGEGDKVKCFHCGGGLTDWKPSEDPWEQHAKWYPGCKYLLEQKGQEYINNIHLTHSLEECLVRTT

The assay addresses XIAP-BIR3 (Homo sapiens, UniProt P98170). The experiment in a line: XIAP BIR3 fluorescence polarization binding assay (competition with AbuRPF-K(5-Fam)-NH2). The settings on record: 5 nM AbuRPF-K(5-Fam)-NH2, 40 nM XIAP-BIR3, pH 7.5; Kd calculated from measured IC50; read-out: KD Range. As to the method:
Binding constants (Kd) were measured using fluorescence polarization as described by Zaneta Nikolovska-Coleska, Renxiao Wang, Xueliang Fang, Hongguang Pan, York Tomita, Peng Li, Peter P. Roller, Krzysztof Krajewski, Naoyuki Saito, Jeanne Stuckey and Shaomeng Wang, in “Development and Optimization of a Binding Assay for the XIAP BIR3 Domain Using Fluorescence Polarization”, Analytical Biochemistry 2004, 332, 261-273). Briefly, test IAP binding compounds at various concentrations for binding measurements were mixed with 5 nM fluorescently labeled peptide (AbuRPF-K(5-Fam)-NH2) and 40 nM of XIAP-BIR3 for 15 minutes at room temperature in 100 μL of 0.1M Potassium Phosphate buffer, pH 7.5 containing 100 μg/ml bovine γ-globulin. Following incubation, the polarization values (mP) were measured on a Victor^2V using a 485 nm excitation filter and a 520 nm emission filter. IC50 values were determined from the plot using nonlinear least-squares analysis using GraphPad Prism. The Kd values of competitive inhibitors were calculated using the equation described by Zaneta Nikolovska-Coleska et al. based upon the measured IC50 values, the Kd value of the probe and XIAP BIR3 complex, and the concentrations of the protein and probe in the competition assay. In various examples of IAP binding or IAP binding cargo molecules ranges for Kd values: Group A: Kd<0.1 μM; Group B: Kd=0.1-1 μM; Group C: Kd=1-10 μM; Group D: Kd>10 μM.
Take `CC(C)[C@H](NC(=O)[C@H](C)NC(=O)OC(C)(C)C)C(=O)N1C[C@@H](Oc2ccccc2)C[C@H]1/C=C/COc1ccc2c(c1)CCCC2` [Entry 3-16]: the Kd is over 10000 nM. The value for `CN[C@@H](C)C(=O)N[C@H](C(=O)N1C[C@@H](Oc2ccccc2)C[C@H]1/C=C/COc1cccc(Cl)c1Cl)C(C)C` [Entry 3-13] was 100 to 1000 nM. With `CC(C)C(NC(=O)CN)C(=O)N1CC(Oc2ccccc2)CC1Cc1coc2ccccc12` (stereo not shown) [Entry 5-52], the Kd was 1000 to 10000 nM.

With `CC(=O)n1cc(CC2CCCN2C(=O)C(NC(=O)CN)C(C)C)c2ccccc21` (stereo not shown) [Entry 14-95], the Kd was over 10000 nM. The figure for `CC(N)C(=O)NC(C(=O)N1CCCC1Cc1c(-c2nccs2)oc2ccccc12)C(C)C` (stereo not shown) [Entry 9-85] is 100 to 1000 nM; for `CN[C@@H](C)C(=O)N[C@H](C(=O)N1C[C@@H](Oc2ccccc2)C[C@H]1COc1ccccc1)C(C)C` [Entry 2-2] it is 100 to 1000 nM; for `CC(C)[C@H](NC(=O)[C@H](C)N)C(=O)N1C[C@@H](Oc2ccccc2)C[C@H]1/C=C/COc1ccccc1` [Entry 3-8] it is 100 to 1000 nM. Regarding `CC(C)Oc1ccccc1OCCCC1CCCN1C(=O)C(NC(=O)C(C)N)C(C)C` (stereo not shown) [Entry 4-35], the Kd is 1000 to 10000 nM.

Take `C#CCOC(C)[C@H](NC(=O)[C@H](C)N)C(=O)N1C[C@@H](Oc2ccccc2)C[C@H]1COc1ccccc1` (stereo partly shown) [Entry 2-7]: the Kd was under 100 nM.

In the case of `CC(C)Oc1ccccc1OC/C=C/[C@@H]1C[C@H](Oc2ccccc2)CN1C(=O)[C@@H](NC(=O)[C@H](C)N)C(C)C` [Entry 3-15], the Kd is 100 to 1000 nM. As to `CC(C)[C@H](NC(=O)[C@H](C)N)C(=O)N1C[C@@H](Oc2ccccc2)C[C@H]1COc1ccccc1` [Entry 2-1, 2S-Amino-N-[2-methyl-1S-(4S-phenoxy-2S-phenoxymethyl-pyrrolidine-1-carbonyl)-propyl]-propionamide hydrochloride], the equilibrium dissociation constant (Kd) is 100 to 1000 nM. Consider `CC(C)Oc1ccccc1OCCC[C@@H]1C[C@H](Oc2ccccc2)CN1C(=O)[C@@H](NC(=O)[C@H](C)N)C(C)C` [Entry 4-29], for which the Kd is 100 to 1000 nM. The value for `CC(N)C(=O)NC(C(=O)N1CCCC1Cc1c(-c2cccnc2)oc2ccccc12)C(C)C` (stereo not shown) [Entry 9-82] was 100 to 1000 nM.

For the compound `CC(C)[C@H](NC(=O)[C@H](C)N)C(=O)N1CCC[C@H]1Cc1coc2ccccc12` [Entry 5-41, 2S-Amino-N-[1S-(2S-benzofuran-3-ylmethyl-pyrrolidine-1-carbonyl)-2-methyl-propyl]-propionamide], the Kd was under 100 nM. With `CNC(C)C(=O)NC(C(=O)N1CCCC1Cc1c(-c2cccs2)[nH]c2cc(F)ccc12)C(C)(C)C` (stereo not shown) [Entry 15-108], the dissociation constant Kd was under 100 nM.

For `CC(C)[C@H](NC(=O)[C@H](C)N)C(=O)N1CCC[C@H]1Cc1c[nH]c2ccccc12` [Entry 14-99, 2S-Amino-N-{1S-[2S-(1H-indol-3-ylmethyl)-pyrrolidine-1-carbonyl]-2-methyl-propyl}-propionamide], the Kd was 100 to 1000 nM. The figure for `CCc1ccccc1OCCC[C@H]1C[C@H](Oc2ccccc2)CN1C(=O)[C@@H](NC(=O)[C@H](C)N)C(C)C` [Entry 4-25, 2S-Amino-N-(1S-{2S-[3-(2-ethyl-phenoxy)-propyl]-4S-phenoxy-pyrrolidine-1-carbonyl}-2-methyl-propyl)-propionamide] is 100 to 1000 nM; for `COc1ccccc1OC/C=C/[C@@H]1C[C@H](Oc2ccccc2)CN1C(=O)[C@@H](NC(=O)CN)C(C)C` [Entry 3-19] it is over 10000 nM. The value for `CNC(C)C(=O)NC(C(=O)N1CCCC1Cc1coc2ccc(Cl)cc12)C(C)C` (stereo not shown) [Entry 5-62] was under 100 nM; that for `CC(N)C(=O)NC(C(=O)N1CCCC1CCCOc1ccccc1-c1ccccc1)C(C)C` (single isomer, unassigned) [Entry 4-36] was over 10000 nM; that for `CNC(C)C(=O)NC(C(=O)N1CCCC1Cc1cn(CCOCCOCCOC)c2ccccc12)C1CCCCC1` (stereo not shown) [Entry 16-111] was 100 to 1000 nM.

Turning to `CC(N)C(=O)NC1CCCCNC(=O)CCc2oc3ccccc3c2CC2CCCN2C1=O` (stereo not shown) [Entry 12-92], the Kd was 1000 to 10000 nM.
